In patent US20250136553A1, “ACYLSULFONAMIDE KAT6A INHIBITORS” (Olema Pharmaceuticals, Inc., priority 2023, published 2025):
pIC50: −log10 of the molar value.

Target: human-KAT6A (MYST domain 507-778 aa) (Homo sapiens (Human), UniProt Q92794)
Experiment: KAT6A biochemical assay (TR-FRET)
Settings: @ 1 μM; reported where IC50 could not be determined; read-out: Percent inhibition at specific concentration (KAT6A)
Procedure, shortened: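 KAT6A MYST domain preincubated with compound 30 min at 25° C, then reacted 60 min at 25° C with 200 nM biotin-H4 peptide and 600 nM acetyl-CoA (final). Europium anti-acetyl-lysine/streptavidin-APC TR-FRET read (Ex 340, Em 615/665 nm); % inhibition from 665/615 ratio, IC50 by sigmoidal fit.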

human-KAT6A (MYST domain 507-778 aa), sequence (Q92794 507-778): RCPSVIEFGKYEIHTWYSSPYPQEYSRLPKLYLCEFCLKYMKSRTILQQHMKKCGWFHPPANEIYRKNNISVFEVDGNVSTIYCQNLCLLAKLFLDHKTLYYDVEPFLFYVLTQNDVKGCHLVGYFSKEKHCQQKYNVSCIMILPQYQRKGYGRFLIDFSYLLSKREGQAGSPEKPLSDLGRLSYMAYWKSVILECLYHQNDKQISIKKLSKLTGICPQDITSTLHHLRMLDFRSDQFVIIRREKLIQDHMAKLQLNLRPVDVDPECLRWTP

Row | inhibition at 1 µM [%] | Compound
1 | 46 | COc1nc(C(=O)N[S@](=N)(=O)c2ccccc2F)ccc1Cn1cccn1 [Compound 307b, (S)-5-((1H-pyrazol-1-yl)methyl)-N-(2-fluorophenylsulfonimidoyl)-6-methoxypicolinamide]

Same assay, conditions: TR-FRET; histone H4 peptide 200 nM, acetyl-CoA 600 nM; read-out: KAT6A IC50

Row | Compound | pIC50
2 | COc1cc(OC)c([S@](=N)(=O)NC(=O)c2ccc(Cn3cccn3)c(OC)n2)c(OC)c1 [Compound 296a, (R)-5-((1H-pyrazol-1-yl)methyl)-6-methoxy-N-(2,4,6-trimethoxyphenylsulfonimidoyl)picolinamide] | 7.80
3 | COc1cc(OC)c([S@@](=N)(=O)NC(=O)c2ccc(Cn3cccn3)c(OC)n2)c(OC)c1 [Compound 296b, (S)-5-((1H-pyrazol-1-yl)methyl)-6-methoxy-N-(2,4,6-trimethoxyphenylsulfonimidoyl)picolinamide] | 6.17
4 | COc1cccc(OC2CCC2)c1[S@](=N)(=O)NC(=O)c1ccc(Cn2cccn2)c(OC)n1 [Compound 298a, (R)-5-((1H-pyrazol-1-yl)methyl)-N-(2-cyclobutoxy-6-methoxyphenylsulfonimidoyl)-6-methoxypicolinamide] | 7.64
5 | COc1cccc(OC2CCC2)c1[S@@](=N)(=O)NC(=O)c1ccc(Cn2cccn2)c(OC)n1 [Compound 298b, (S)-5-((1H-pyrazol-1-yl)methyl)-N-(2-cyclobutoxy-6-methoxyphenylsulfonimidoyl)-6-methoxypicolinamide] | 6.29
6 | COc1cc(OC)c([S@](=N)(=O)NC(=O)c2ccc(Cn3cccn3)c(OC)c2)c(OC)c1 [Compound 299a, (R)-4-((1H-pyrazol-1-yl)methyl)-3-methoxy-N-(2,4,6-trimethoxyphenylsulfonimidoyl)benzamide] | 7.82
7 | COc1cc(OC)c([S@@](=N)(=O)NC(=O)c2ccc(Cn3cccn3)c(OC)c2)c(OC)c1 [Compound 299b, (S)-4-((1H-pyrazol-1-yl)methyl)-3-methoxy-N-(2,4,6-trimethoxyphenylsulfonimidoyl)benzamide] | 6.65
8 | COc1cccc(OC)c1[S@](=N)(=O)NC(=O)c1ccc(Cn2cccn2)c(OC(F)(F)F)c1 [Compound 300a, (R)-4-((1H-pyrazol-1-yl)methyl)-N-(2,6-dimethoxyphenylsulfonimidoyl)-3-(trifluoromethoxy)benzamide] | 6.90
9 | COc1cccc(OC)c1[S@@](=N)(=O)NC(=O)c1ccc(Cn2cccn2)c(OC(F)(F)F)c1 [Compound 300b, (S)-4-((1H-pyrazol-1-yl)methyl)-N-(2,6-dimethoxyphenylsulfonimidoyl)-3-(trifluoromethoxy)benzamide] | 7.74
10 | COc1ccc(C)c(OC)c1[S@](=N)(=O)NC(=O)c1ccc(Cn2cccn2)c(OC)n1 [Compound 301a, (R)-5-((1H-pyrazol-1-yl)methyl)-N-(2,6-dimethoxy-3-methylphenylsulfonimidoyl)-6-methoxypicolinamide] | 6.50
11 | COc1ccc(C)c(OC)c1[S@@](=N)(=O)NC(=O)c1ccc(Cn2cccn2)c(OC)n1 [Compound 301b, (S)-5-((1H-pyrazol-1-yl)methyl)-N-(2,6-dimethoxy-3-methylphenylsulfonimidoyl)-6-methoxypicolinamide] | 7.77
12 | COc1cc(C(=O)N[S@@](=N)(=O)c2c(OC)ccc(Cl)c2OC)ccc1Cn1cccn1 [Compound 302a, (R)-4-((1H-pyrazol-1-yl)methyl)-N-(3-chloro-2,6-dimethoxyphenylsulfonimidoyl)-3-methoxybenzamide] | 7.68
13 | COc1cc(C(=O)N[S@](=N)(=O)c2c(OC)ccc(Cl)c2OC)ccc1Cn1cccn1 [Compound 302b, (S)-4-((1H-pyrazol-1-yl)methyl)-N-(3-chloro-2,6-dimethoxyphenylsulfonimidoyl)-3-methoxybenzamide] | 6.52
14 | COc1nc(C(=O)N[S@@](=N)(=O)c2cccc3c2OCC3)ccc1Cn1cccn1 [Compound 303a, (R)-5-((1H-pyrazol-1-yl)methyl)-N-(2,3-dihydrobenzofuran-7-sulfonimidoyl)-6-methoxypicolinamide] | 7.59
15 | COc1nc(C(=O)N[S@](=N)(=O)c2cccc3c2OCC3)ccc1Cn1cccn1 [Compound 303b, (S)-5-((1H-pyrazol-1-yl)methyl)-N-(2,3-dihydrobenzofuran-7-sulfonimidoyl)-6-methoxypicolinamide] | 6.97
16 | COc1cc(C(=O)N[S@@](=N)(=O)c2c(OC)ccc(C)c2OC)ccc1Cn1cccn1 [Compound 304a, (R)-4-((1H-pyrazol-1-yl)methyl)-N-(2,6-dimethoxy-3-methylphenylsulfonimidoyl)-3-methoxybenzamide] | 7.74
17 | COc1cc(C(=O)N[S@](=N)(=O)c2c(OC)ccc(C)c2OC)ccc1Cn1cccn1 [Compound 304b, (S)-4-((1H-pyrazol-1-yl)methyl)-N-(2,6-dimethoxy-3-methylphenylsulfonimidoyl)-3-methoxybenzamide] | 6.89
18 | COc1cc(C(=O)NS(=O)(=O)c2cc(Cl)cc3c2OCC3)ccc1Cn1cccn1 [Compound 309, 4-((1H-pyrazol-1-yl)methyl)-N-((5-chloro-2,3-dihydrobenzofuran-7-yl)sulfonyl)-3-methoxybenzamide] | 7.77
19 | COc1cc(C(=O)NS(=O)(=O)c2ccc3c(c2)CCO3)ccc1Cn1cccn1 [Compound 310, 4-((1H-pyrazol-1-yl)methyl)-N-((2,3-dihydrobenzofuran-5-yl)sulfonyl)-3-methoxybenzamide] | 6.95
20 | COc1ccc(S(=O)(=O)NC(=O)c2ccc(Cn3cccn3)c(OC)c2)cc1Cl [Compound 311, 4-((1H-pyrazol-1-yl)methyl)-N-((3-chloro-4-methoxyphenyl)sulfonyl)-3-methoxybenzamide] | 6.87
21 | COc1cc(C(=O)NS(=O)(=O)c2ccccc2OC2CC2)ccc1Cn1cccn1 [Compound 313, 4-((1H-pyrazol-1-yl)methyl)-N-((2-cyclopropoxyphenyl)sulfonyl)-3-methoxybenzamide] | 7.49
22 | COc1cc(C(=O)NS(=O)(=O)c2cccc3c2OC(C)C3)ccc1Cn1cccn1 (centres unmarked) [Compound 314, 4-((1H-pyrazol-1-yl)methyl)-3-methoxy-N-((2-methyl-2,3-dihydrobenzofuran-7-yl)sulfonyl)benzamide] | 7.89

The remaining lines, values ahead:

Row | pIC50 | Compound
23 | 7.82 | COc1cccc(F)c1[S@](=N)(=O)NC(=O)c1ccc(Cn2cccn2)c(OC)n1 [Compound 305a, (R)-5-((1H-pyrazol-1-yl)methyl)-N-(2-fluoro-6-methoxyphenylsulfonimidoyl)-6-methoxypicolinamide]
24 | 6.50 | COc1cccc(F)c1[S@@](=N)(=O)NC(=O)c1ccc(Cn2cccn2)c(OC)n1 [Compound 305b, (S)-5-((1H-pyrazol-1-yl)methyl)-N-(2-fluoro-6-methoxyphenylsulfonimidoyl)-6-methoxypicolinamide]
25 | 7.92 | COc1cc(C)cc(OC)c1[S@](=N)(=O)NC(=O)c1ccc(Cn2cccn2)c(OC)n1 [Compound 306a, (R)-5-((1H-pyrazol-1-yl)methyl)-N-(2,6-dimethoxy-4-methylphenylsulfonimidoyl)-6-methoxypicolinamide]
26 | 6.55 | COc1cc(C)cc(OC)c1[S@@](=N)(=O)NC(=O)c1ccc(Cn2cccn2)c(OC)n1 [Compound 306b, (S)-5-((1H-pyrazol-1-yl)methyl)-N-(2,6-dimethoxy-4-methylphenylsulfonimidoyl)-6-methoxypicolinamide]
27 | 6.97 | COc1nc(C(=O)N[S@@](=N)(=O)c2ccccc2F)ccc1Cn1cccn1 [Compound 307a, (R)-5-((1H-pyrazol-1-yl)methyl)-N-(2-fluorophenylsulfonimidoyl)-6-methoxypicolinamide]
28 | 5.80 | COc1nc(C(=O)N[S@@](=N)(=O)c2c(F)cccc2F)ccc1Cn1cccn1 [Compound 308a, (R)-5-((1H-pyrazol-1-yl)methyl)-N-(2,6-difluorophenylsulfonimidoyl)-6-methoxypicolinamide]
29 | 7.31 | COc1nc(C(=O)N[S@](=N)(=O)c2c(F)cccc2F)ccc1Cn1cccn1 [Compound 308b, (S)-5-((1H-pyrazol-1-yl)methyl)-N-(2,6-difluorophenylsulfonimidoyl)-6-methoxypicolinamide]
